For test [1], the target named is hGYS1 enzyme (recombinant hGYS1/GN1 protein) (Homo sapiens (Human), UniProt P13807). The test can be described thus: GYS1 coupled enzyme assay (PK/LDH). The conditions noted are these: hGYS1/GN1 50 nM, UDP-Glucose 0.8 mM, G6P 1 mM; geometric mean of at least 2 runs. The class given is biochemical.
Test [2] deals with hGYS1 enzyme / glycogen synthesis in HeLa cells. The test can be described thus: GYS1 cell based assay (glycogen synthesis, Glucose-glo). Also noted: species or system human. The conditions noted are these: 24 h incubation, 20 mM glucose, geometric mean of at least 2 runs. A digest of the protocol: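 HeLa cells starved 24 h in medium containing only 1× Glutamax were plated onto compound in medium with 20 mM glucose (1% DMSO final) for 24 h, 37 °C, 5% CO2. Acid lysates were Tris-quenched, glucoamylase-digested (pH 5.3, 1 h, 37 °C) and read by Glucose-glo luminescence. IC50 came from Hill fits, as geometric mean of ≥2 runs.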

The target in test [3] is hGYS2 enzyme (recombinant hGYS2/GN1 protein) (Homo sapiens (Human), UniProt P54840). The test can be described thus: GYS2 coupled enzyme assay (PK/LDH). The class given is biochemical. The note with it: geometric mean of at least 2 assay runs on separate days, read-out: Avg_IC50. A digest of the protocol: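 Read-out: NADH loss at 340 nm, read each minute for 10 min, slope normalized to controls, duplicate % inhibition fit to Hill (0–100). Enzyme: 200 nM hGYS2/GN1; substrate 2 mM UDP-glucose plus 0.2% glycogen and 2 mM G6P; pH 7.5 Tris, 2.5% DMSO.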
Chain of hGYS2 enzyme (recombinant hGYS2/GN1 protein) (P54840 whole entry): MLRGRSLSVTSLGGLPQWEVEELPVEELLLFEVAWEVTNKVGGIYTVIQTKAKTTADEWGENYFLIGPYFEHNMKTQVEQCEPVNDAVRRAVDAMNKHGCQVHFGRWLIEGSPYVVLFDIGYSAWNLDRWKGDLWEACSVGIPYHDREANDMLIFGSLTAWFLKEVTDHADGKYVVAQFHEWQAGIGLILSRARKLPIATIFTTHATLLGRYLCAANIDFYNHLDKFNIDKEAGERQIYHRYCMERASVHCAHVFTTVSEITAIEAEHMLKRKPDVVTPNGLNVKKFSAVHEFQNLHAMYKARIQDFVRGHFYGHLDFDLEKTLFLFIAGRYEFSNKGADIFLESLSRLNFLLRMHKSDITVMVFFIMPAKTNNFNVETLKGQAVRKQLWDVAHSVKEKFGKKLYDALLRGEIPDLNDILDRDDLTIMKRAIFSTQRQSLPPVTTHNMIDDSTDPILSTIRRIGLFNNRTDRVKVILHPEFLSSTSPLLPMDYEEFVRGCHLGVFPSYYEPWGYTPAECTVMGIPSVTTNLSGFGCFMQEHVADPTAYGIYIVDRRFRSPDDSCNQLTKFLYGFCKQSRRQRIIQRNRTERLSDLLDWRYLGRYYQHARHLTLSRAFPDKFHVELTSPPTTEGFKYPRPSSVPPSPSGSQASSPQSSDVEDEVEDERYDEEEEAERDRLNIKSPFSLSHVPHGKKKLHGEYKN
Chain of hGYS2 enzyme (recombinant hGYS2/GN1 protein) (P46976 whole entry partner): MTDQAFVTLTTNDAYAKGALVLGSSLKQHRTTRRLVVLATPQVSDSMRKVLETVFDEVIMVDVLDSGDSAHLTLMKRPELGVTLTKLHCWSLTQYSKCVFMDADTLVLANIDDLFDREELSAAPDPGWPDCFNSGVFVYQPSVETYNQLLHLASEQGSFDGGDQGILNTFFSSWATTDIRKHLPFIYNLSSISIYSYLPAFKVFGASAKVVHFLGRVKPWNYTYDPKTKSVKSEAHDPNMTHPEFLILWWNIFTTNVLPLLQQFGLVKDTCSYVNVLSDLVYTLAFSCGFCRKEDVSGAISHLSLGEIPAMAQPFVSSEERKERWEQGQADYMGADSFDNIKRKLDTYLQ

Chain of hGYS1 enzyme (recombinant hGYS1/GN1 protein) (P13807 whole entry): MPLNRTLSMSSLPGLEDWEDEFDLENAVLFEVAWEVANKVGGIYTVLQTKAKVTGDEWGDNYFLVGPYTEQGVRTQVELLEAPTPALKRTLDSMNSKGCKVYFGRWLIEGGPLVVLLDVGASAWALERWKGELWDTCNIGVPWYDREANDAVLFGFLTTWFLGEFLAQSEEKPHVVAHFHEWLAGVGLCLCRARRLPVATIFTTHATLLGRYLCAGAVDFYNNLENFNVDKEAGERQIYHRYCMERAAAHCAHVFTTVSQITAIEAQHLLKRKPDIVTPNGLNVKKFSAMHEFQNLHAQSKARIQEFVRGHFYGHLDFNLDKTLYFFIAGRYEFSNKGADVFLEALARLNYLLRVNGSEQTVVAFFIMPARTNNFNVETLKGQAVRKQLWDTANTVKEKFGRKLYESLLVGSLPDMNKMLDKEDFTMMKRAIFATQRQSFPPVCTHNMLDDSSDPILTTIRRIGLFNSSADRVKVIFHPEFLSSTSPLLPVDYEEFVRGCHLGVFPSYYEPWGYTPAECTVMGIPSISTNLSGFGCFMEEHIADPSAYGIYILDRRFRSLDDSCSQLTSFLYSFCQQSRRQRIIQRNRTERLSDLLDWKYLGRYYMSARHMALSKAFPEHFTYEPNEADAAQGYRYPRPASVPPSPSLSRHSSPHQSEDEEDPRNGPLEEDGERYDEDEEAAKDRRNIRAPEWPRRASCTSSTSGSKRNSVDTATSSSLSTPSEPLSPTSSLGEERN
Chain of hGYS1 enzyme (recombinant hGYS1/GN1 protein) (P46976 whole entry partner): as the sequence (P46976 whole entry partner) above

Turning to `O=C(N[C@@H](c1ccccc1)c1ccc(C2CC2)c(F)c1)[C@@H]1C[C@@H](F)CN1C(=O)Cn1cnnn1` [Compound 431, (2S,4R)-N-[(S)-(4-cyclopropyl-3-fluorophenyl)(phenyl)methyl]-4-fluoro-1-[2-(1H-1,2,3,4-tetrazol-1-yl)acetyl]pyrrolidine-2-carboxamide], the IC50 in test [1] is 221 nM; in test [2] (Homo sapiens, HeLa, 24 h) it was 3350 nM; in test [3] it was above 100000 nM.

Take `CC(C)c1ccc([C@@H](NC(=O)[C@@H]2C[C@@H](F)[C@H](C)N2C(=O)Cc2cnn[nH]2)c2ccccc2)cc1F` [Compound 340, (2S,4R,5S)-4-fluoro-N-[(S)-[3-fluoro-4-(propan-2-yl)phenyl](phenyl)methyl]-5-methyl-1-[2-(1H-1,2,3-triazol-5-yl)acetyl]pyrrolidine-2-carboxamide]: the IC50 in test [1] was 18 nM; in test [2] (Homo sapiens, HeLa, 24 h), 250 nM; in test [3] it was above 100000 nM.

In the case of `Cc1cnc(CC(=O)N2C[C@H](F)C[C@H]2C(=O)N[C@@H](c2ccccc2)c2ccc(C3CC(F)(F)C3)c(F)n2)o1` [Compound 509, (2S,4R)-N-[(S)-[5-(3,3-difluorocyclobutyl)-6-fluoropyridin-2-yl](phenyl)methyl]-4-fluoro-1-[2-(5-methyl-1,3-oxazol-2-yl)acetyl]pyrrolidine-2-carboxamide], the IC50 in test [1] is 8 nM; in test [2] (Homo sapiens, HeLa, 24 h), 180 nM; in test [3], above 100000 nM.

On to `CC(C)c1ccc([C@@H](NC(=O)[C@@H]2C[C@@H](F)CN2C(=O)Cc2cccn3c(=O)[nH]nc23)c2ccccc2)cc1F` [Compound 379, (2S,4R)-4-fluoro-N-[(S)-[3-fluoro-4-(propan-2-yl)phenyl](phenyl)methyl]-1-(2-{3-oxo-2H,3H-[1,2,4]triazolo[4,3-a]pyridin-8-yl}acetyl)pyrrolidine-2-carboxamide], for which the IC50 is 8 nM in test [1]; 190 nM in test [2] (Homo sapiens, HeLa, 24 h); above 100000 nM in test [3].

As to `Cc1nn(CC(=O)N2C[C@H](F)C[C@H]2C(=O)N[C@@H](c2ccccc2)c2ccc(C3CC(F)(F)C3)c(F)n2)c(=O)o1` [Compound 502, (2S,4R)-N-[(S)-[5-(3,3-difluorocyclobutyl)-6-fluoropyridin-2-yl](phenyl)methyl]-4-fluoro-1-[2-(5-methyl-2-oxo-2,3-dihydro-1,3,4-oxadiazol-3-yl)acetyl]pyrrolidine-2-carboxamide], the IC50 in test [1] is 10 nM; in test [2] (Homo sapiens, HeLa, 24 h) it was 170 nM; in test [3], above 100000 nM.

Turning to `Cn1c(CC(=O)N2C[C@H](F)C[C@H]2C(=O)N[C@@H](c2ccccc2)c2ccc(C3CC3)c(F)n2)noc1=O` [Compound 719, (2S,4R)-N-[(S)-(5-cyclopropyl-6-fluoropyridin-2-yl)(phenyl)methyl]-4-fluoro-1-[2-(4-methyl-5-oxo-4,5-dihydro-1,2,4-oxadiazol-3-yl)acetyl]pyrrolidine-2-carboxamide], the IC50 is 254 nM in test [1]; 2220 nM in test [2] (Homo sapiens, HeLa, 24 h); above 100000 nM in test [3].

Take `CC(C)c1ccc([C@@H](NC(=O)[C@@H]2C[C@@H](F)CN2C(=O)Cn2cnc3ccccc32)c2ccccc2)cc1F` [Compound 354, (2S,4R)-1-[2-(1H-1,3-benzodiazol-1-yl)acetyl]-4-fluoro-N-[(S)-[3-fluoro-4-(propan-2-yl)phenyl](phenyl)methyl] pyrrolidine-2-carboxamide]: the IC50 was 5 nM in test [1]; 60 nM in test [2] (Homo sapiens, HeLa, 24 h); above 100000 nM in test [3].

With `CNC(=O)NCC(=O)N1C[C@H](F)C[C@H]1C(=O)N[C@@H](c1ccccc1)c1ccc(C(C)C)cn1` [Compound 261, (2S,4R)-4-fluoro-1-{2-[(methylcarbamoyl)amino]acetyl}-N-[(S)-phenyl[5-(propan-2-yl)pyridin-2-yl]methyl]pyrrolidine-2-carboxamide], the IC50 in test [1] is 59 nM; in test [2] (Homo sapiens, HeLa, 24 h), 1800 nM; in test [3], above 100000 nM.

Regarding `Cc1ccnn1CC(=O)N1C[C@H](F)C[C@H]1C(=O)N[C@@H](c1ccccc1)c1ccc(C2CC2)c(F)n1` [Compound 724, (2S,4R)-N-[(S)-(5-cyclopropyl-6-fluoropyridin-2-yl)(phenyl)methyl]-4-fluoro-1-[2-(5-methyl-1H-pyrazol-1-yl)acetyl]pyrrolidine-2-carboxamide], the IC50 in test [1] was 34 nM; in test [2] (Homo sapiens, HeLa, 24 h) it was 630 nM; in test [3] it was above 100000 nM.

For the compound `CC(C(=O)N1C[C@H](F)C[C@H]1C(=O)N[C@@H](c1ccccc1)c1ccc(C2(C)CC2)c(F)c1)n1cnc2ccccc21` (single isomer, unassigned) [Compound 574, (2S,4R)-1-[(2S) or 2R)-2-(1H-1,3-benzodiazol-1-yl)propanoyl]-4-fluoro-N-[(S)-[3-fluoro-4-(1-methylcyclopropyl)phenyl](phenyl) methyl]pyrrolidine-2-carboxamide], the IC50 in test [1] is 22 nM; in test [2], 200 nM; in test [3], above 100000 nM.

Turning to `CC(C)c1ccc(C(NC(=O)[C@@H]2C[C@@H](F)CN2C(=O)Cc2cnn[nH]2)c2ccc3cn[nH]c3c2)nc1F` (single isomer, unassigned) [Compound 632, (2S,4R)-4-fluoro-N-[(S) or (R)-[6-fluoro-5-(propan-2-yl)pyridin-2-yl](1H-indazol-6-yl)methyl]-1-[2-(1H-1,2,3-triazol-5-yl)acetyl]pyrrolidine-2-carboxamide], the IC50 in test [1] is 13 nM; in test [2], 660 nM; in test [3], above 100000 nM.

On to `CC(C)c1ccc([C@@H](NC(=O)[C@@H]2C[C@@H](F)CN2C(=O)COC(=O)N2CCNCC2)c2ccccc2)cc1F` [Compound 363, 2-[(2S,4R)-4-fluoro-2-{[(S)-[3-fluoro-4-(propan-2-yl)phenyl](phenyl)methyl]carbamoyl}pyrrolidin-1-yl]-2-oxoethyl piperazine-1-carboxylate], for which the IC50 in test [1] was 19 nM; in test [2] (Homo sapiens, HeLa, 24 h), 320 nM; in test [3], above 100000 nM.

For `CC(C)c1ccc([C@@H](NC(=O)[C@@H]2C[C@@H](F)CN2C(=O)CCc2n[nH]c(=O)[nH]2)c2ccccc2)nc1` [Compound 287, (2S,4R)-4-fluoro-1-[3-(5-oxo-4,5-dihydro-1H-1,2,4-triazol-3-yl)propanoyl]-N-[(S)-phenyl[5-(propan-2-yl)pyridin-2-yl]methyl]pyrrolidine-2-carboxamide], the IC50 in test [1] was 124 nM; in test [2] (Homo sapiens, HeLa, 24 h) it was 11800 nM; in test [3], above 100000 nM.

For the compound `CC(C)c1ccc([C@@H](NC(=O)[C@@H]2C[C@@H](F)CN2C(=O)[C@@H]2CNC(=O)O2)c2ccccc2)cc1F` [Compound 381, (2S,4R)-4-fluoro-N-[(S)-[3-fluoro-4-(propan-2-yl)phenyl](phenyl)methyl]-1-[(5S)-2-oxo-1,3-oxazolidine-5-carbonyl]pyrrolidine-2-carboxamide], the IC50 in test [1] was 58 nM; in test [2] (Homo sapiens, HeLa, 24 h) it was 440 nM; in test [3], above 100000 nM.

Consider `O=C(N[C@@H](c1ccccc1)c1ccc(C2CC2)c(F)n1)[C@@H]1C[C@@H](F)CN1C(=O)Cn1cc(C(F)(F)F)cn1` [Compound 728, (2S,4R)-N-[(S)-(5-cyclopropyl-6-fluoropyridin-2-yl)(phenyl)methyl]-4-fluoro-1-{2-[4-(trifluoromethyl)-1H-pyrazol-1-yl]acetyl}pyrrolidine-2-carboxamide], for which the IC50 in test [1] was 36 nM; in test [2] (Homo sapiens, HeLa, 24 h), 790 nM; in test [3], above 100000 nM.

(Values after patent US11814367B2, “Inhibitors of glycogen synthase 1 (GYS1) and methods of use thereof” (Maze Therapeutics, Inc., priority 2021, dated 2023).)
